According to patent publication US11666558B2, “Methods of treating intraocular pressure with activators of Tie-2” (EyePoint Pharmaceuticals, Inc., priority 2015, dated 2023):
Where a name gives a salt, the structure may show the parent alone. Read-outs that look alike come from different tables or passages of the source.

Experiment: Ocular tissue concentrations (aqueous humor, vitreous humor, iris, retina, choroid, cornea) after topical ocular, subcutaneous and intravitreal administration
Format: in vivo, New Zealand White rabbits
Details: for concentration at 4 h / concentration at 0.5 h / concentration at 1 hr / concentration at 2 hr / concentration at 4 hr / concentration at 0.5 hr / concentration at 2 h / concentration at 1 h / concentration at 6 hr / concentration at 24 h / concentration at 48 h / concentration at 72 h: New Zealand White, rabbit; for concentration at 6 hr / concentration at 24 h / concentration at 48 h / concentration at 72 h: other: intravitreal, 2.5 mg per eye, Group 4 intravitreal 2.5 mg per eye
Protocol: To measure the concentration of Compound 1 in plasma and ocular tissues following topical ocular, subcutaneous, and intravitreal administration, New Zealand White rabbits were administered Compound 1, and plasma and ocular samples were collected at pre-determined time points. Compound 1 formulations were prepared fresh on each day of dosing.
Ocular tissue samples from both eyes of each animal were collected and weights were recorded. Plasma and ocular tissue sample concentrations of Compound 1 were determined by LC-MS/MS.
New Zealand White rabbits weighing 2.5 to 3.5 kg were used on this study. Rabbits were housed one per cage. Animals were not fasted and only healthy animals with no ocular illness were used. Two rabbits per group were sacrificed at each of four ocular tissue sampling time points for a total of eight rabbits per group.
Animals were anesthetized for ocular (topical) and intravitreal dosing following the 12IA7 IACUC protocol. Each rabbit received a bolus dose of test formulation either via topical ocular administration 3 times daily on Days 1 and 2 (at 0, 6, and 12 hours), and once on Day 3 (at 0 hours) into both eyes; via intravitreal administration into both eyes once on Day 1 (at 0 hours); or via subcutaneous administration 2 times daily on Days 1 and 2 (at 0 and 8 hours) and once daily on Day 3 (at 0 hours). Doses were given within an approximately 1 hour window each day where applicable.
On Day 1, for intravitreal administration, or on Day 3, for topical ocular and subcutaneous administration, at the appropriate ocular tissue collection time points, animals were euthanized and both eyes were enucleated immediately. Following enucleation, each eye was rinsed with phosphate-buffered saline. Ocular tissue samples from both eyes of each animal were collected at predetermined time points and weights were recorded. All the samples were frozen immediately on dry ice, and stored at −60° C. to −80° C. pending bioanalysis.
An LC-MS/MS method was developed for the determination of Compound 1 in rabbit aqueous tissues (plasma, aqueous and vitreous humor) and solid ocular tissue samples. A pre-study standard curve was analyzed to determine the specificity, range, and lower limit of quantitation of the method. Plasma and tissue homogenate study samples were extracted and analyzed. All the samples were treated identically to the standards.
One eight-point standard curve was used in each analytical batch. To be accepted, each batch must have had at least five of eight standards with accuracy within ±20% of nominal, except at the lower limit of quantification (LLOQ), where ±25% was acceptable.
Concentration versus time data is plotted in FIGS. 3-16. All data are expressed as ng/g of the free drug. Samples that were below the limit of quantitation (0.2 ng/mL) were not used in the calculation of averages.

[1] = vitreous humor, read-out: vitreous humor Average Conc.
[2] = vitreous humor, read-out: vitreous humor Conc., individual eyes (OD, OS)

## COC(=O)N[C@@H](Cc1ccccc1)C(=O)N[C@@H](Cc1ccc(NS(=O)(=O)O)cc1)c1csc(-c2cccs2)n1 [Compound 1 sodium salt]
Aqueous humor, topical, 1.2 mg/eye, Group 1 topical ocular 1.2 mg/eye, 4.0 hr, read-out: aqueous humor Average Conc.
  concentration at 4 h: 8.24 ng/g
choroid, topical, 1.2 mg/eye, topical ocular 1.2 mg/eye (~0.7 mg/kg/dose), read-out: Choroid tissue Average
  concentration at 0.5 h: 57.7 ng/g
choroid, topical, 1.2 mg/eye, topical ocular 1.2 mg/eye (~0.7 mg/kg/dose), 1 hr, read-out: Choroid tissue Average
  concentration at 1 hr: 32.2 ng/g
choroid, topical, 1.2 mg/eye, topical ocular 1.2 mg/eye (~0.7 mg/kg/dose), 2 hr, read-out: Choroid tissue Average
  concentration at 2 hr: 59.2 ng/g
choroid, topical, 1.2 mg/eye, topical ocular 1.2 mg/eye (~0.7 mg/kg/dose), 4 hr, read-out: Choroid tissue Average
  concentration at 4 hr: 165 ng/g
cornea, topical, 1.2 mg/eye, topical ocular 1.2 mg/eye (~0.7 mg/kg/dose), read-out: Cornea tissue Average
  concentration at 0.5 hr: 1020 ng/g
cornea, topical, 1.2 mg/eye, topical ocular 1.2 mg/eye (~0.7 mg/kg/dose), read-out: Cornea tissue Conc., individual eyes (OD, OS)
  concentration at 0.5 hr: 427 ng/g
cornea, topical, 1.2 mg/eye, topical ocular 1.2 mg/eye (~0.7 mg/kg/dose), 1 hr, read-out: Cornea tissue Average
  concentration at 1 hr: 548 ng/g
cornea, topical, 1.2 mg/eye, topical ocular 1.2 mg/eye (~0.7 mg/kg/dose), 2 hr, read-out: Cornea tissue Average
  concentration at 2 hr: 1070 ng/g
cornea, topical, 1.2 mg/eye, topical ocular 1.2 mg/eye (~0.7 mg/kg/dose), 4 hr, read-out: Cornea tissue Average
  concentration at 4 hr: 534 ng/g
Iris homogenate, topical, 1.2 mg/eye, topical ocular 1.2 mg/eye (~0.7 mg/kg/dose), read-out: Iris homogenate Conc., individual eyes (OD, OS)
  concentration at 0.5 hr: 2.55 ng/mL
iris, topical, 1.2 mg/eye, topical ocular 1.2 mg/eye (~0.7 mg/kg/dose), read-out: Iris tissue Average
  concentration at 0.5 hr: 24.3 ng/g
iris, topical, 1.2 mg/eye, topical ocular 1.2 mg/eye (~0.7 mg/kg/dose), read-out: Iris tissue Conc., individual eyes (OD, OS)
  concentration at 0.5 hr: 17.8 ng/g
iris, topical, 1.2 mg/eye, topical ocular 1.2 mg/eye (~0.7 mg/kg/dose), 1 hr, read-out: Iris tissue Average
  concentration at 1 hr: 55.2 ng/g
iris, topical, 1.2 mg/eye, topical ocular 1.2 mg/eye (~0.7 mg/kg/dose), 2 hr, read-out: Iris tissue Average
  concentration at 2 h: 51.9 ng/g
iris, topical, 1.2 mg/eye, topical ocular 1.2 mg/eye (~0.7 mg/kg/dose), 4 hr, read-out: Iris tissue Average
  concentration at 4 h: 261 ng/g
iris, topical, 1.2 mg/eye, topical ocular 1.2 mg/eye (~0.7 mg/kg/dose), 4 hr, read-out: Iris tissue Conc., individual eyes (OD, OS)
  concentration at 4 h: 30.7 ng/g
retina, topical, 1.2 mg/eye, topical ocular 1.2 mg/eye (~0.7 mg/kg/dose), read-out: Retina tissue Average
  concentration at 0.5 h: 25.6 ng/g
retina, topical, 1.2 mg/eye, topical ocular 1.2 mg/eye (~0.7 mg/kg/dose), 1 hr, read-out: Retina tissue Average
  concentration at 1 h: 59.2 ng/g
retina, topical, 1.2 mg/eye, topical ocular 1.2 mg/eye (~0.7 mg/kg/dose), 2 hr, read-out: Retina tissue Average
  concentration at 2 h: 48.3 ng/g
retina, topical, 1.2 mg/eye, topical ocular 1.2 mg/eye (~0.7 mg/kg/dose), 4 hr, read-out: Retina tissue Average
  concentration at 4 h: 405 ng/g
[1]
  concentration at 6 hr: 988000 ng/g
  concentration at 24 h: 350000 ng/g
  concentration at 48 h: 82000 ng/g
  concentration at 72 h: 13400 ng/g
[2]
  concentration at 6 hr: 592000 ng/mL
  concentration at 24 h: 438000 ng/mL
  concentration at 48 h: 85200 ng/mL
  concentration at 72 h: 14500 ng/mL
Vitreous humor, subcutaneous, 5 mg/kg, Group 2 subcutaneous 5 mg/kg, read-out: vitreous humor Average Conc.
  concentration at 0.5 hr: 0.83 ng/g
Vitreous humor, subcutaneous, 5 mg/kg, Group 2 subcutaneous 5 mg/kg, read-out: vitreous humor Conc., individual eyes (OD, OS)
  concentration at 0.5 hr: 0.77 ng/mL
Vitreous humor, subcutaneous, 5 mg/kg, Group 2 subcutaneous 5 mg/kg, 1.0 hr, read-out: vitreous humor Average Conc.
  concentration at 1 hr: 0.45 ng/g
Vitreous humor, topical, 1.2 mg/eye, Group 1 topical ocular 1.2 mg/eye, read-out: vitreous humor Average Conc.
  concentration at 0.5 h: 0.61 ng/g
Vitreous humor, topical, 1.2 mg/eye, Group 1 topical ocular 1.2 mg/eye, read-out: vitreous humor Conc., individual eyes (OD, OS)
  concentration at 0.5 h: 0.528 ng/mL
Vitreous humor, topical, 1.2 mg/eye, Group 1 topical ocular 1.2 mg/eye, 1.0 hr, read-out: vitreous humor Average Conc.
  concentration at 1 h: 2.09 ng/g
Vitreous humor, topical, 1.2 mg/eye, Group 1 topical ocular 1.2 mg/eye, 2.0 hr, read-out: vitreous humor Average Conc.
  concentration at 2 hr: 3.33 ng/g
Vitreous humor, topical, 1.2 mg/eye, Group 1 topical ocular 1.2 mg/eye, 2.0 hr, read-out: vitreous humor Conc., individual eyes (OD, OS)
  concentration at 2 hr: 1.14 ng/mL
Vitreous humor, topical, 1.2 mg/eye, Group 1 topical ocular 1.2 mg/eye, 4.0 hr, read-out: vitreous humor Average Conc.
  concentration at 4 hr: 4.01 ng/g
Topical ocular administration, over four hours (FIG. 6)
  aqueous humor concentrations: below 50 ng/g
